Data published in patent publication US20110286998A1, “METHODS FOR TREATING AND PREVENTING CANCERS THAT EXPRESS THE HYPOTHALAMIC-PITUITARY-GONADAL AXIS OF HORMONES AND RECEPTORS” (Voyager Pharmaceutical Corporation, priority 2001, published 2011).

Assays:
[1] = both, dog, in vivo, sc, 34 mg
Procedure: FIG. 16 presents results of a pharmacokinetic study in which male and female dogs were either injected intramuscularly with a leuprolide depot formulation or implanted subcutaneously with a leuprolide implant formulation.
Six dogs of each sex were dosed with 60 mg of Lupron Depot® by injection (males—X, females—▴) on day 1. Six dogs of each sex were dosed with single subcutaneous doses (males—▪, females—♦) of 3 DURIN™-Leuprolide 11.3 mg implants (total dose 34 mg) on day 1 and again on day 64. Serum leuprolide levels were determined and plotted against time out to 200 days.

cancer cell lines = format: cell-based
Procedure: Cell growth assays were performed as described below. CaOV3 (ATCC HTB-75) cells were plated in Dulbecco's modified Eagle's medium with 4 mM L-glutamine, 1.5 g/L sodium bicarbonate, 0.1 mM non-essential amino acids, and 10% fetal bovine serum. H358 (ATCC CRL-5807) cells were plated in RPMI 1640 medium with 2 mM L-glutamine adjusted to contain 1.5 g/L sodium bicarbonate, 4.5 g/L glucose, 10 mM HEPES, 1.0 mM sodium pyruvate and 10% fetal bovine serum. H838 (ATCC CRL-5844) cells were plated in RPMI 1640 medium with 1.5 g/L sodium bicarbonate, 4.5 g/L glucose, 10 mM HEPES, 1.0 mM sodium pyruvate, 10 U/ml insulin and 10% fetal bovine serum. […]
For cell growth assays in a 96 well format, different numbers of cells were plated, depending on the cell line (about 2000 cells/well for CaOV3, about 250 cells/well for 786-O, about 500 cells/well for H838 and H358, about 5000 cells/well for T47D and […], about 1000 cells/well for HPAC, ACHN, HT-29, MCF-7 and about 300,000 cells/well for MV4-11). […] The number of cells in each group was measured by incubating cells with WST-8 (2-(2-methoxy-4-nitrophenyl)-3-(4-nitrophenyl)-5-(2,4-disulfophenyl)-2H-tetrazolium, monosodium salt) which produces a water soluble formazan dye that was detected by measuring optical density (at 450 nm) using a μQuant™ Universal Microplate Spectrophotometer (Bio-Tek® Instruments, Inc., Winooski, Vt.).

testosterone = conditions: in vivo; cited from earlier work
[2] = tested on: pituitary secretion of LH and FSH; conditions: cited from earlier work

With `CCNC(=O)[C@@H]1CCCN1C(=O)[C@H](CCCNC(=N)N)NC(=O)[C@H](CC(C)C)NC(=O)[C@@H](CC(C)C)NC(=O)[C@H](Cc1ccc(O)cc1)NC(=O)[C@H](CO)NC(=O)[C@H](Cc1c[nH]c2ccccc12)NC(=O)[C@H](Cc1c[nH]cn1)NC(=O)[C@@H]1CCC(=O)N1` [leuprolide acetate] the “sustained serum levels of leuprolide acetate” value [1] was 5.0 to 8.0 ng/mL, the “effect on growth of cancer cell lines” value (cancer cell lines) was “slows or inhibits growth in a dose dependent manner” and the “inhibition rates of cancer cell growth” value (cancer cell lines; highest dose of leuprolide used in the studies) was 10-40%. For the same compound, the “serum concentrations required for testosterone suppression” value (testosterone) was “less than 1 ng/ml”, the “pituitary secretion of LH and FSH” value ([2]; for several days after initial administration) was “increase” and the “LH and FSH secretion” value ([2]; thereafter, pituitary GnRH receptors down-regulated) was “significant decrease”.
